Measured values: PubChem BioAssay AID256 (DTP/NCI, 2004)
Several values for one entry are separate records, joined by “and”; a condition that tells them apart may be missing. Identical values can stand only once. Toxic doses and inconclusive results are not listed. The calls were made as follows: active = survival T/C of 150% or more; inactive = T/C below 125% in these data.

Tested on: CD2F1 mice, L1210 leukemia ip, survival T/C
Assay: NCI In Vivo Anticancer Drug Screen. Data for tumor model L1210 Leukemia (intraperitoneal) in CD2F1 (CDF1) mice
Conditions: higher = longer survival
How it was run: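 Transplantable tumor in mice; compound-treated vs vehicle-treated groups. Read-out = treated/control ratio of the measured endpoint.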

[1] = endpoint: mean survival time, dose: 100.0 mg/kg/injection, schedule: Q01DX009 (ip), vehicle: saline with Tween-80
[2] = endpoint: mean survival time, dose: 200.0 mg/kg/injection, schedule: Q01DX009 (ip), vehicle: saline with Tween-80
[3] = endpoint: mean survival time, dose: 400.0 mg/kg/injection, schedule: Q01DX009 (ip), vehicle: saline with Tween-80
[4] = endpoint: mean survival time, dose: 100.0 mg/kg/injection, schedule: Q04DX003 (ip), vehicle: saline with Tween-80
[5] = endpoint: mean survival time, dose: 200.0 mg/kg/injection, schedule: Q04DX003 (ip), vehicle: saline with Tween-80
[6] = endpoint: mean survival time, dose: 400.0 mg/kg/injection, schedule: Q04DX003 (ip), vehicle: saline with Tween-80
[7] = endpoint: mean survival time, dose: 100.0 mg/kg/injection, schedule: Q01DX001 (ip), vehicle: saline
[8] = endpoint: mean survival time, dose: 200.0 mg/kg/injection, schedule: Q01DX001 (ip), vehicle: saline
[9] = endpoint: mean survival time, dose: 400.0 mg/kg/injection, schedule: Q01DX001 (ip), vehicle: saline
[10] = endpoint: mean survival time, dose: 25.0 mg/kg/injection, schedule: Q01DX009 (ip), vehicle: Klucel (hydroxypropylcellulose) (HPC)
[11] = endpoint: mean survival time, dose: 50.0 mg/kg/injection, schedule: Q01DX009 (ip), vehicle: Klucel (hydroxypropylcellulose) (HPC)
[12] = endpoint: mean survival time, dose: 100.0 mg/kg/injection, schedule: Q01DX009 (ip), vehicle: Klucel (hydroxypropylcellulose) (HPC)
[13] = endpoint: mean survival time, dose: 25.0 mg/kg/injection, schedule: Q04DX003 (ip), vehicle: saline with Tween-80
[14] = endpoint: mean survival time, dose: 50.0 mg/kg/injection, schedule: Q04DX003 (ip), vehicle: saline with Tween-80

Measured: T/C

COc1ccc(C(C)c2cc3c(cc2OC)OCO3)cc1 (centres undefined)
inactive: endpoint: median survival time, dose: 25.0 mg/kg/injection, schedule: Q01DX009 (ip), vehicle: saline with Tween-80 101 % of control | endpoint: median survival time, dose: 50.0 mg/kg/injection, schedule: Q01DX009 (ip), vehicle: saline with Tween-80 107 % of control | endpoint: median survival time, dose: 100.0 mg/kg/injection, schedule: Q01DX009 (ip), vehicle: saline with Tween-80 113 % of control | endpoint: median survival time, dose: 200.0 mg/kg/injection, schedule: Q01DX009 (ip), vehicle: saline with Tween-80 119 % of control

C1CCC2C(C1)NC1CCCCC12 (centres undefined)
inactive: endpoint: mean survival time, dose: 25.0 mg/kg/injection, schedule: Q01DX009 (ip), vehicle: saline 89 % of control | endpoint: mean survival time, dose: 50.0 mg/kg/injection, schedule: Q01DX009 (ip), vehicle: saline 89 % of control

O=C(CNC(=O)c1ccccc1)N/N=C/c1ccco1
inactive: [1] 94 % of control | [2] 90 % of control | [3] 95 % of control

C/C(=N\NC(=O)c1ccccc1O)c1cccc(/C(C)=N/NC(=O)c2ccccc2O)n1
inactive: endpoint: median survival time, dose: 3.0 mg/kg/injection, schedule: Q01DX009 (ip), vehicle: saline 101 % of control | endpoint: median survival time, dose: 6.0 mg/kg/injection, schedule: Q01DX009 (ip), vehicle: saline 106 % of control | endpoint: median survival time, dose: 12.0 mg/kg/injection, schedule: Q01DX009 (ip), vehicle: saline 101 % of control | endpoint: median survival time, dose: 25.0 mg/kg/injection, schedule: Q01DX009 (ip), vehicle: saline 93 % of control

CC1(C)C/C(=C\c2ccccc2)C(=O)c2ccccc21
inactive: endpoint: mean survival time, dose: 100.0 mg/kg/injection, schedule: Q01DX009 (ip), vehicle: other 104 % of control | endpoint: mean survival time, dose: 200.0 mg/kg/injection, schedule: Q01DX009 (ip), vehicle: other 112 % of control | endpoint: mean survival time, dose: 400.0 mg/kg/injection, schedule: Q01DX009 (ip), vehicle: other 96 % of control

O=C1c2ccccc2C(=O)N1CC/C=C/c1ccc([N+](=O)[O-])cc1Cl
inactive: [4] 98 % of control | [5] 91 % of control | [6] 100 % of control

CC(=O)Nc1ccc(CCc2nc(NC(C)=O)nc(Cl)c2-c2ccc(Cl)c(Cl)c2)cc1
inactive: endpoint: mean survival time, dose: 75.0 mg/kg/injection, schedule: Q01DX001 (ip), vehicle: saline with Tween-80 103 % of control | endpoint: mean survival time, dose: 150.0 mg/kg/injection, schedule: Q01DX001 (ip), vehicle: saline with Tween-80 101 % of control | endpoint: mean survival time, dose: 300.0 mg/kg/injection, schedule: Q01DX001 (ip), vehicle: saline with Tween-80 94 % of control

COc1ccc(OCC(O)CO)cc1 (centres undefined)
inactive: [7] 102 % of control | [8] 102 % of control | [9] 97 % of control

CCCCCCCCCCCCCCCCCC[n+]1cccc(C(=O)N2CCOCC2)c1
inactive: [10] 90 % of control | [11] 95 % of control | [12] 92 % of control

Cc1cccc(OP(=O)(c2ccccc2)c2ccccc2)c1
inactive: [4] 98 % of control | [5] 98 % of control | [6] 103 % of control

Nc1c[nH]c(=O)[nH]c1=O
inactive: endpoint: mean survival time, dose: 100.0 mg/kg/injection, schedule: Q04DX002 (ip), vehicle: saline with Tween-80 101 % of control | endpoint: mean survival time, dose: 200.0 mg/kg/injection, schedule: Q04DX002 (ip), vehicle: saline with Tween-80 109 % of control | endpoint: mean survival time, dose: 400.0 mg/kg/injection, schedule: Q04DX002 (ip), vehicle: saline with Tween-80 109 % of control

COC1OC(CO)C(NC(N)=O)C1O (centres undefined)
inactive: [7] 101 % of control | [8] 100 % of control | [9] 95 % of control

O=C(O)CC(=O)O.[NH-]CC(O)C[N-]CC(O)CN.[Pt+2] (centres undefined)
inactive: endpoint: median survival time, dose: 10.0 mg/kg/injection, schedule: Q04DX003 (ip), vehicle: distilled water + Tween-80 101 % of control | endpoint: median survival time, dose: 20.0 mg/kg/injection, schedule: Q04DX003 (ip), vehicle: distilled water + Tween-80 101 % of control | endpoint: median survival time, dose: 40.0 mg/kg/injection, schedule: Q04DX003 (ip), vehicle: distilled water + Tween-80 104 % of control | endpoint: median survival time, dose: 66.5 mg/kg/injection, schedule: Q04DX003 (ip), vehicle: distilled water + Tween-80 107 % of control | endpoint: median survival time, dose: 80.0 mg/kg/injection, schedule: Q04DX003 (ip), vehicle: distilled water + Tween-80 106 % of control and 108 % of control | endpoint: median survival time, dose: 133.0 mg/kg/injection, schedule: Q04DX003 (ip), vehicle: distilled water + Tween-80 108 % of control | endpoint: median survival time, dose: 160.0 mg/kg/injection, schedule: Q04DX003 (ip), vehicle: distilled water + Tween-80 119 % of control | endpoint: median survival time, dose: 266.0 mg/kg/injection, schedule: Q04DX003 (ip), vehicle: distilled water + Tween-80 117 % of control | endpoint: median survival time, dose: 320.0 mg/kg/injection, schedule: Q04DX003 (ip), vehicle: distilled water + Tween-80 117 % of control

CC1(C)C=C(Cc2ccccc2)C(=O)c2ccccc21
inactive: [1] 94 % of control | [4] 96 % of control | [2] 97 % of control | [5] 100 % of control | [3] 97 % of control | [6] 97 % of control

O.O.O=C(O)CC(=O)O.[NH-]C1CCCCC1[NH-].[Pt+2] (centres undefined)
inactive: endpoint: mean survival time, dose: 12.5 mg/kg/injection, schedule: Q04DX003 (ip), vehicle: dextrose 98 % of control

O=C1C(=O)C(Cl)=C(Cl)C(Cl)=C1Cl
inactive: endpoint: mean survival time, dose: 12.5 mg/kg/injection, schedule: Q01DX009 (ip), vehicle: saline with Tween-80 96 % of control | endpoint: mean survival time, dose: 12.5 mg/kg/injection, schedule: Q04DX003 (ip), vehicle: saline with Tween-80 93 % of control | endpoint: mean survival time, dose: 25.0 mg/kg/injection, schedule: Q01DX009 (ip), vehicle: saline with Tween-80 92 % of control | [13] 104 % of control | [14] 104 % of control

N#CC1(O)CCCCC1
inactive: endpoint: mean survival time, dose: 2.5 mg/kg/injection, schedule: Q01DX009 (ip), vehicle: saline with Tween-80 102 % of control | endpoint: mean survival time, dose: 5.0 mg/kg/injection, schedule: Q01DX009 (ip), vehicle: saline with Tween-80 104 % of control | endpoint: mean survival time, dose: 5.0 mg/kg/injection, schedule: Q04DX003 (ip), vehicle: saline with Tween-80 102 % of control | endpoint: mean survival time, dose: 10.0 mg/kg/injection, schedule: Q01DX009 (ip), vehicle: saline with Tween-80 94 % of control | endpoint: mean survival time, dose: 10.0 mg/kg/injection, schedule: Q04DX003 (ip), vehicle: saline with Tween-80 102 % of control

Nc1ncnc2c1c1c(=S)[nH]c(=S)[nH]c1n2C1OC(CO)C(O)C1O (centres undefined)
inactive: endpoint: mean survival time, dose: 12.5 mg/kg/injection, schedule: Q01DX005 (ip), vehicle: distilled water + Tween-80 104 % of control | endpoint: mean survival time, dose: 25.0 mg/kg/injection, schedule: Q01DX005 (ip), vehicle: distilled water + Tween-80 105 % of control | endpoint: mean survival time, dose: 50.0 mg/kg/injection, schedule: Q01DX005 (ip), vehicle: distilled water + Tween-80 107 % of control | endpoint: mean survival time, dose: 100.0 mg/kg/injection, schedule: Q01DX005 (ip), vehicle: distilled water + Tween-80 104 % of control | endpoint: mean survival time, dose: 200.0 mg/kg/injection, schedule: Q01DX005 (ip), vehicle: distilled water + Tween-80 102 % of control

COc1ccc(OC)c(NC(=O)NNc2ccc([N+](=O)[O-])cc2[N+](=O)[O-])c1
inactive: [1] 88 % of control | [2] 91 % of control

CCOC/C=C/C1CCCCC1
inactive: endpoint: mean survival time, dose: 50.0 mg/kg/injection, schedule: Q01DX009 (ip), vehicle: saline with Tween-80 117 % of control | [1] 97 % of control | [2] 97 % of control

CC(=O)OCc1cc(=O)n(C)c2c3c4c(cc12)c(C)cc(=O)n4CO3
inactive: endpoint: mean survival time, dose: 6.25 mg/kg/injection, schedule: Q01DX009 (ip), vehicle: Klucel (hydroxypropylcellulose) (HPC) 100 % of control | endpoint: mean survival time, dose: 12.5 mg/kg/injection, schedule: Q01DX009 (ip), vehicle: Klucel (hydroxypropylcellulose) (HPC) 104 % of control and 112 % of control | [10] 112 % of control and 114 % of control and 109 % of control | [11] 119 % of control | [12] 90 % of control

CC1OC(OC2C(OC3CCC4(C)C(CCC5(C)C4CC=C4C6CC(C)(C)CCC6(CO)C(O)CC45C)C3(C)C)OC(CO)C(OC3OC(COC4OC(CO)C(O)C(O)C4O)C(O)C(O)C3O)C2O)C(O)C(O)C1O (centres undefined)
inactive: endpoint: mean survival time, dose: 50.0 mg/kg/injection, schedule: Q01DX001 (sc), vehicle: steriod suspending solution 103 % of control

Cc1cc(C)c(C(C)(C)O)c(C)c1
inactive: [5] 98 % of control | [6] 106 % of control

CCOC(=O)C(C=O)(CC)C(=O)OCC
inactive: [1] 97 % of control | [2] 94 % of control | [3] 103 % of control

CC1Oc2cc3c(-c4c(O)cc(O)c5c(O)c6c(cc45)OC(C)C(C)C6=O)c(O)cc(O)c3c(O)c2C(=O)C1C (centres undefined)
inactive: endpoint: median survival time, dose: 5.0 mg/kg/injection, schedule: Q01DX009 (ip), vehicle: suspension in saline 87 % of control | endpoint: median survival time, dose: 10.0 mg/kg/injection, schedule: Q01DX009 (ip), vehicle: suspension in saline 91 % of control

NC(=O)C[P+](c1ccccc1)(c1ccccc1)c1ccccc1
inactive: [13] 109 % of control | [14] 114 % of control | [4] 102 % of control and 105 % of control
